Test results as given in patent publication US10683553B2, “Method for determining sensitivity to simultaneous inhibitor against PARP and Tankyrase” (THE ASAN FOUNDATION, priority 2015, dated 2020).

How the values were obtained:
Format in all cases: cell-based
[1] = tested on: HCT116 human colon cancer cell line; assay: Trypan blue apoptosis after siRNA knockdown of DNA repair genes; details: HCT116 p53 normal, LIG4 siRNA knockdown; 25 μM and 50 μM, 48 hours
Excerpt: In order to analyze the degree of apoptosis of Compound A, which is a novel PARP/Tankyrase simultaneous inhibitor, depending on the presence or absence of the p53 gene and the presence or absence of the DNA repair gene, the present inventors reduced gene expression by an ATR, XLF, XRCC4 and LIG4 siRNA knockdown method known as a DNA repair gene in the human colon cancer cell line HCT116 in which the p53 normal gene is present, and then treated with Compound A, which is a novel PARP/Tankyrase simultaneous inhibitor. Then, the number of cells was measured by trypan blue staining assay to confirm the degree of apoptosis. As the experimental conditions and methods, the HCT116 p53 null human colon cancer cell line in which the p53 gene is normal and the HCT116 and p53 gene are deficient is cultured in RPMI1640 (10% FBS, 1% penicillin/streptomycin), and 1×10^5 per well was cultured at 37° C. for 24 hours in a 60 mm plate. ATR, XLF, XRCC4 and LIG4 (SEQ ID NO: 4; ATR siRNA 5′-GAGUUCUCAGAAGUCAACC-3′, SEQ ID NO: 5; XLF siRNA 5′-[…]-3′, SEQ ID NO: 6; XRCC4 siRNA 5′-[…]-3′, SEQ ID NO: 7; LIG4 siRNA 5′-GGGAGUGUCUCAUGUAAUA-3′) were infused into cells by means of Lipofectamin 2000 (Invitrogen), and knocked down at 37° C. for 48 hours. […] After 48 hours of culturing, the number of cells was measured by trypan blue staining and the degree of apoptosis was confirmed.

[2] = tested on: HCT8 human colon cancer cell line; assay: Trypan blue apoptosis with overexpressed mutant LIG4 (G833A or T1704C); details: HCT8 overexpressing LIG4 mutant G833A or T1704C vs control group (empty); 25 μM and 50 μM, 48 hours
Excerpt: In order to analyze the degree of apoptosis of Compound A, which is a novel PARP/Tankyrase simultaneous inhibitor, when the p53 genotype is a normal type and an LIG4 genotype is a mutant type, the present inventors treated a novel PARP/Tankyrase simultaneous inhibitor, Compound A, and the competitive drug PARP inhibitor, olaparib, while overexpressing an LIG4 mutant type in the HCT8 human colon cancer cell line in which the p53 gene is a normal type and an LIG4 genotype is a normal type. Then, the number of cells was measured by trypan blue staining assay to confirm the degree of apoptosis. […] After 48 hours of culturing, the number of cells was measured by trypan blue staining and the degree of apoptosis was confirmed.
The present inventors conducted an experiment in the same manner as Example 9 to analyze the degree of apoptosis and DNA damage of Compound A, which is a novel PARP/Tankyrase simultaneous inhibitor, when the p53 genotype is a mutant type and an LIG4 genotype is a mutant type. The number of cells was measured by trypan blue staining method and the degree of apoptosis was confirmed. […] It was washed with TBS-T buffer three times for 15 minutes to induce luminescence of PDVF membrane using ECL buffer solution to develop protein expression on each anti-body using an X-ray film.

[3] = tested on: LoVo human colon cancer cell line; assay: Trypan blue apoptosis with overexpressed mutant p53 or normal LIG4; details: 25 μM and 50 μM, 48 hours
Excerpt: As in Example 12, in order to analyze the degree of apoptosis of Compound B, which is a novel PARP/Tankyrase simultaneous inhibitor, according to the expression of a mutant type p53 and a normal type LIG4 when the p53 genotype is a normal type and an LIG4 genotype is a mutant type, the present inventors treated a novel PARP/Tankyrase simultaneous inhibitor, Compound B, and the competitive drug PARP inhibitor, olaparib, while overexpressing the p53 mutant type and the LIG4 normal type in the LoVo human colon cancer cell line in which the p53 gene is a normal type and an LIG4 genotype is a mutant type. Then, the number of cells was measured by trypan blue staining assay to confirm the degree of apoptosis. The conditions and methods of the above experiment were the same as the methods of RKO cell culturing and transfection methods of Example 12. Compound B, which is a novel PARP/Tankyrase simultaneous inhibitor, and olaparib, which is a competitive drug PARP inhibitor, were treated with each of 25 μM and 50 μM. After 48 hours of culturing, the number of cells was measured by trypan blue staining assay and the degree of apoptosis was confirmed.

[4] = tested on: LoVo human colon cancer cell line; assay: Western blot of r-H2AX and cleaved caspase 3 with overexpressed mutant p53 or normal LIG4
Excerpt: In order to analyze the degree of DNA damage and the degree of apoptosis of Compound B, which is a novel PARP/Tankyrase simultaneous inhibitor, according to the expression of a mutant type p53 and a normal type LIG4 when the p53 genotype is a normal type and an LIG4 genotype is a mutant type, the present inventors cultured and treated the LoVo human colon cancer cell line in which the p53 genotype is a normal type and an LIG4 genotype is a mutant type under the same condition as in Example 17.

[5] = LoVo overexpressing LIG4 normal type gene vs control group (empty)
[6] = LoVo overexpressing p53 mutant type gene vs control group (empty)

Row | SMILES | degree of apoptosis (trypan blue cell count) [1] | degree of apoptosis (trypan blue cell count) [2] | degree of apoptosis (trypan blue cell count) [3, 5] | degree of apoptosis (trypan blue cell count) [3, 6] | expression amount of cleaved caspase 3 (western blot) [4, 5] | expression of r-H2AX (western blot) [4, 5] | expression amount of cleaved caspase 3 (western blot) [4, 6] | expression of r-H2AX (western blot) [4, 6]
1 | CCOc1cc(CN(C)C)cc2[nH]c(=O)c3c(c12)NCCC3 [Compound A, 8-[(dimethylamino)methyl]-10-ethoxy-1,2,3,4-tetrahydrobenzo[h][1,6]naphthyridin-5(6H)-one] | apoptosis is significantly increased | apoptosis was increased |  |  |  |  |  | 
2 | N#Cc1ccc(N2CCN(Cc3ccc4c5c(c(=O)[nH]c4c3)CCCN5)CC2)nc1 [Compound B, 6-{4-[(5-oxo-1,2,3,4,5,6-hexahydrobenzo[h][1,6]naphthyridin-8-yl)methyl]piperazin-1-yl}nicotinonitrile] |  |  | apoptosis was reduced | apoptosis was reduced | reduced | reduced | reduced | reduced
